In patent publication US6686444B2, “Osteopontin derived chemotactic peptides and methods of use” (Children's Medical Center Corporation, priority 1996, dated 2004):

B1: OPN(ct): the C-terminal half of OPN after thrombin cleavage (protein)
chain: SKSRSFQVSDEQYPDATDEDLTSHMKSGESKESLDVIPVAQLLSMPSDQDNNGKGSHESSQLDEPSLETHRLEHSKESQESADQSDVIDSQASSKASLEHQSHKFHSHKDKLVLDPKSKEDDRYLKFRISHELESSSSEVN

Legend:
osteosarcoma cells = assay: Modified Boyden chamber chemotaxis of osteosarcoma cells; assay type: cell-based; conditions: for Chemotactic activity (in words): osteosarcoma cells
Experimental: Purified OPN (˜0.5 mg) was digested with trypsin (2% w/w) in 0.2 ml of 50 mM NH4HCO3, pH 8.0, for 20 hours at 37° C. before treatment of the reaction products with 50 μl of 100% H2O+0.1% trifluoroacidic acid (TFA) and resolution of the peptides by HPLC chromatography on C-18 column (25×0.46 cm). After injection the column was washed for 10 min, followed by linear gradient elution from 100% H2O+0.1% TFA to 60% CH3CN+0.55% TFA over 120 min, with a second gradient from 60% CH3CN to 80% CN3CN over 30 min at a flow rate of 0.5 ml/min. The absorbance at 219 nm was recorded continuously by an on-line chart recorder/integrator using Gilson HM Holochrome detector, and fractions of 0.5 ml were collected. Each peak was then tested for mediation of chemotaxis or for its ability to inhibit OPN mediated chemotaxis using the chemotactic assay described in Example 4 below. Furthermore, each peak was also tested for its ability to promote attachment of CD44^+ or αvβx cells.
Positive peaks from tryptic digest were sequenced by gas-phase automated sequenator. Chemotactic peptides corresponding to the positive sequences were synthesized and the resulting synthetic peptides were then tested for their ability to promote either chemotaxis or to inhibit the chemotaxis to OPN as described in Example 4. Chemical synthesis of peptides provides a convenient method to test the sequence specificity and minimal length of the chemotactic peptides.
In a modified Boyden chamber, both surfaces of polycarbonate filters (pore size, 8 μm) were coated with gelatin (100 μg/ml, overnight) before 1×10^3 osteosarcoma cells were added in 500 μl to the upper chamber and incubated at 37° C. in the presence or absence of chemotactic agents in the lower chamber. After two hours, the membranes were fixed in methanol and stained with hematoxilin/toluidine blue. Responding cells on the lower surface of the filter were counted microscopically and evaluated in triplicates. Random migration was assessed by counting the number of cells that migrated to the lower surface of the filter when excess chemotactic molecule was added to the upper chamber.

peritoneal exudate cells = assay: In vivo cellular migration into the peritoneum after intraperitoneal injection (peritoneal exudate, flow cytometry); design: species or system Mice
Experimental: Mice were injected intraperitoneally with varying dosages of K7 osteosarcoma-derived osteopontin. All injection volumes were 200 μl. Injections of vehicle alone (PBS) served as negative controls and vehicle plus 20 μg lipopolysaccharide (LPS) injections served as positive controls for elicitation of peritoneal exudates.
Mice were sacrificed by CO2-asphyxiation at varying times following injection. Immediately after sacrifice, peritoneal exudate was recovered by intraperitoneal injection and recovery of 10 mL PBS. The lavage procedure was performed twice on each mouse. Following this, red blood cells were lysed by hypotonic lysis with ACK lysis buffer (0.15 M NH4Cl, 1.0 mM KHCO3, 0.1 mM Na2EDTA, pH 7.4) for 5 minutes at room temperature, and the preparation was washed in DMEM, 5% FBS. Cells were resuspended in DMEM, 5% FBS for fluorescent antibody staining.
Each sample of cells to be analyzed for specific surface markers was suspended in DMEM, 5% FBS at a concentration of 0.2 to 1 million cells in 50 μl. Fluorescence-labeled antibodies were added at 1 μg/1×10^6 cells, and incubated with the cells for 30 minutes at 4° C. Samples were washed twice with 200 μl of PBS following antibody staining and fixed with 500 μl of 2% paraformaldehyde in PBS. Peritoneal exudate cells were analyzed by dual-color flow cytometry for expression of CD44 (PE), CD11b (Mac-1, FITC, macrophage marker), B220 (FITC, B-cell marker), and CD3 (FITC, T-cell marker). All antibodies were purchased from PharMingen and flow cytometric analysis was done using a Coulter EPICS flow cytometer. Controls for non-specific binding and single color controls were included.

[1] = Table 2, substance in lower chamber, upper chamber OPN
[2] = Table 2, substance in lower chamber, upper chamber PBS
[3] = Table 2, substance in lower chamber, upper chamber SP64
[4] = Table 2, substance in lower chamber, upper chamber peptide 51
[5] = Table 2, substance in upper chamber, lower chamber PBS
[6] = Table 3, substance in lower chamber, upper chamber Ab64
[7] = Table 3, substance in lower chamber, upper chamber OPN
[8] = Table 3, substance in lower chamber, upper chamber PBS
[9] = Table 3, substance in lower chamber, upper chamber peptide 51
[10] = Table 3, substance in upper chamber, lower chamber PBS
[11] = Table 4, substance in lower chamber, upper chamber OPN
[12] = Table 4, substance in lower chamber, upper chamber OPN(ct)
[13] = Table 4, substance in lower chamber, upper chamber OPN(nT)
[14] = Table 4, substance in lower chamber, upper chamber PBS, averages from at least three experiments
[15] = Table 4, substance in upper chamber, lower chamber PBS
[16] = 6 hours after intraperitoneal injection

Molecule | Chemotactic activity (in words) (osteosarcoma cells) | Responding cells on the lower surface of the filter (osteosarcoma cells; [1]) | Responding cells on the lower surface of the filter (osteosarcoma cells; [2]) | Responding cells on the lower surface of the filter (osteosarcoma cells; [3]) | Responding cells on the lower surface of the filter (osteosarcoma cells; [4]) | Responding cells on the lower surface of the filter (osteosarcoma cells; [5]) | Responding cells on the lower surface of the filter (osteosarcoma cells; [6]) | Responding cells on the lower surface of the filter (osteosarcoma cells; [7]) | Responding cells on the lower surface of the filter (osteosarcoma cells; [8]) | Responding cells on the lower surface of the filter (osteosarcoma cells; [9]) | Responding cells on the lower surface of the filter (osteosarcoma cells; [10]) | Responding cells on the lower surface of the filter (osteosarcoma cells; [11]) | Responding cells on the lower surface of the filter (osteosarcoma cells; [12]) | Responding cells on the lower surface of the filter (osteosarcoma cells; [13]) | Responding cells on the lower surface of the filter (osteosarcoma cells; [14]) | Responding cells on the lower surface of the filter (osteosarcoma cells; [15]) | further results
LVLAPK (OTHER INFORMATION: Osteopontin Derived Peptide) [mutant of peptide 51 with aspartic acid replaced] | failed to induce chemotaxis | – | – | – | – | – | – | – | – | – | – | – | – | – | – | – | –
osteopontin [OPN] | chemotax toward | 43 | 118 | 45 | 32 | 21 | 51 | 94 | 217 | 65 | 14 | 43 | 58 | 115 | 98 | 21 | Dose of peak response of cellular infiltrate (peritoneal exudate cells; [16]): around 13 μg; Number of CD3+ and B220+ cells in the infiltrate (peritoneal exudate cells; [16]): only marginally elevated; Number of Mac-1+ cells in the infiltrate over basal levels (peritoneal exudate cells; [16]): increased fivefold; Cellular infiltrate in the peritoneum (in words) (peritoneal exudate cells; 6 hours after intraperitoneal injection, dose titration): dose dependent increase; Dose of peak CD44+ Mac1+ cell response (peritoneal exudate cells; intraperitoneal injection): around 7 μg; Peritoneal influx of cells (peritoneal exudate cells; intraperitoneal injection, mice): 1.16 million cells
LVLDPK (OTHER INFORMATION: Osteopontin derived peptide) [peptide 51, chemotactic tryptic peptide of osteopontin, also synthesized] | showed chemotactic properties | 88 | 128 | 47 | 51 | 9 | 62 | 187 | 243 | 109 | 8 | – | – | – | – | – | Competition with OPN for the migration of cells (osteosarcoma cells): competes with OPN; Responding cells on the lower surface of the filter (osteosarcoma cells; Table 1, substance in lower chamber, upper chamber PBS): 68; Responding cells on the lower surface of the filter (osteosarcoma cells; Table 1, substance in lower chamber, upper chamber peptide 49): 83; Responding cells on the lower surface of the filter (osteosarcoma cells; Table 1, substance in lower chamber, upper chamber peptide 50): 56; Responding cells on the lower surface of the filter (osteosarcoma cells; Table 1, substance in lower chamber, upper chamber peptide 51): 32; Responding cells on the lower surface of the filter (osteosarcoma cells; Table 1, substance in lower chamber, upper chamber peptide 52): 78; Responding cells on the lower surface of the filter (osteosarcoma cells; Table 1, substance in lower chamber, upper chamber peptide 53): 62; Responding cells on the lower surface of the filter (osteosarcoma cells; Table 1, substance in upper chamber, lower chamber PBS): 13
VLDPK (OTHER INFORMATION: Osteopontin Derived Peptide) [peptide E] | retains some chemotactic activity | – | – | – | – | – | – | – | – | – | – | – | – | – | – | – | Chemotactic activity (in words) (osteosarcoma cells; listed as VLDPK): retains some chemotactic properties
KFHSHKDKLVLDPKSK (OTHER INFORMATION: Osteopontin Derived Peptide) [SP64] | – | 74 | 117 | 66 | 40 | 4 | – | – | – | – | – | – | – | – | – | – | –
B1 | chemotax toward | – | – | – | – | – | – | – | – | – | – | 74 | 31 | 76 | 117 | 156 | –
